The values below come from US20170000849A1, “CD300A RECEPTORS AS VIRUS ENTRY COFACTORS” (INSTITUT NATIONAL DE LA SANTE ET DE LA RECHERCHE MEDICALE …, priority 2013, published 2017).

Assay [1] has as its system binding of DC-SIGN-Fc to DV2 JAM particles. Details: species or system human. The conditions noted are these: DV2 JAM coated particles; ANX5 0.31-20 μg/ml, Duramycin 0.625-5 μM, EDTA 1.25 to 25 mM.
Description: All ELISA were performed on Maxisorp 96 well plates (Nunc). PBS diluted DV particles (1.106 FIU) were coated overnight at 4° C. […] Wells were saturated with TBS 1×, 10 mM CaCl2, 2% BSA for 2 h at 37° C. All dilutions were in TBS 1×, 10 mM CaCl2, washes in TBS 1×, 10 mM CaCl2, 0.5% Tween 20, and incubations, 1 h at 4° C. Annexin V or Duramycin were added previously to Fc chimera while EDTA was mixed with Fcs′. All Fcs' were 2 μg/ml. Bound Fcs' were detected with a pAb rabbit anti-human IgG-HRP and OPD substrate.
The target in assay [2] is binding of CD300a-Fc to DV2 JAM particles (Homo sapiens, UniProt Q9UGN4). In words: ELISA: binding of CD300a-Fc to DV2 JAM coated particles in the presence of inhibitor. As to conditions: for inhibition of the binding of CD300a to DV: ANX5 0.31-20 μg/ml or Duramycin 0.625-5 μM added before CD300a-Fc (2 μg/ml); for effect on CD300a-Fc binding to DV (in words): rat mAb 0.625 to 20 μg/ml, EDTA 1.25 to 25 mM mixed with Fc, ANX5, Duramycin added before Fc. (In general: In an ELISA, binding on a coated surface is turned into a signal by an enzyme label.)
binding of CD300a-Fc to DV2 JAM particles, sequence (Q9UGN4 with tags, fused parts or gaps limits assumed): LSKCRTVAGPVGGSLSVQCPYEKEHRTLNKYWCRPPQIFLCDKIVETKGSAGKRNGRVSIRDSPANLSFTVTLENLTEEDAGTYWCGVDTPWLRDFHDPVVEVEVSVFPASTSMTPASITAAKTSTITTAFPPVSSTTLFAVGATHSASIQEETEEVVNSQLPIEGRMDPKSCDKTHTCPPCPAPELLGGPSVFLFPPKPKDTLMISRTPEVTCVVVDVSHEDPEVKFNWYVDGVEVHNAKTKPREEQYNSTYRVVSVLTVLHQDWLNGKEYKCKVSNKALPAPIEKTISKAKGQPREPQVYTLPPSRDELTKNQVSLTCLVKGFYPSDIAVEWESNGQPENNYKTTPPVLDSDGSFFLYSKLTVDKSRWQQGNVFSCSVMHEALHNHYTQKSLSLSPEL
Description: Graph representing the amount of CD300a-Fc bound by DV2 JAM coated particles in the presence of anti-CD300Ab. Serial dilutions of a rat mAb to CD300a or its IgG2a isotype were mixed with CD300a-Fc before incubation with DV2 JAM coated particles. Residual bound Fc was detected with a HRP conjugated rabbit pAb to human IgG (1/1000) and OPD substrat. Data are represented as mean±SD of three independent experiments performed in duplicates.
(§1) Bar chart representing the amount of TIM3-Fc, CD300a-Fc or DV-SIGN-Fc bound to DV2 JAM particles in the presence of different concentration of Annexin V, a PtdSer specific ligand. DV2 JAM particles were coated in 96 well plates and incubated for one hour at +4° C. with various concentrations of the PtdSer specific ligand Annexin V before the addition of human IgG1-Fc, TIM3-Fc, CD300a-Fc or DV-SIGN-Fc (2 μg/ml). Bound Fcs were detected with a HRP conjugated rabbit pAb to human IgG (1/1000) and OPD substrate. Data are represented as mean±SD of three independent experiments performed in duplicates.
Bar chart representing the amount of CD300a-Fc or DV-SIGN-Fc bound to DV2 JAM particles in the presence of different concentration of Duramycin. DV2 JAM particles were coated in 96 well plates and incubated for one hour at +4° C. with various concentrations of the PtdEth specific ligand Duramycin before the addition of human IgG1-Fc, TIM3-Fc, CD300a-Fc or DV-SIGN-Fc (2 μg/ml). Bound Fcs were detected with a HRP conjugated rabbit pAb to human IgG (1/1000) and OPD substrate. Data are represented as mean±SD of three independent experiments performed in duplicates.
Bar chart representing the amount of CD300a-Fc bound by DV2 JAM coated particles in the presence of EDTA. Two fold serial dilutions of EDTA (1-25 mM) were mixed with CD300a-Fc before incubation with DV2 JAM coated particles. Bound Fcs were detected with a HRP conjugated rabbit pAb to human IgG (1/1000) and OPD substrate. Data shown are mean±SD of duplicates wells and representative of three independent experiments.
All ELISA were performed on Maxisorp 96 well plates (Nunc). PBS diluted DV particles (1.106 FIU) were coated overnight at 4° C. Coated 3-sn-phosphatidyl-Choline, -Ethanolamine or -Serine (10 μg/well, Sigma, Lyon, France) were diluted in ethanol and the wells air dried. Wells were saturated with TBS 1×, 10 mM CaCl2, 2% BSA for 2 h at 37° C. All dilutions were in TBS 1×, 10 mM CaCl2, washes in TBS 1×, 10 mM CaCl2, 0.5% Tween 20, and incubations, 1 h at 4° C. Annexin V or Duramycin were added previously to Fc chimera while EDTA was mixed with Fcs′. All Fcs' were 2 μg/ml. Bound Fcs' were detected with a pAb rabbit anti-human IgG-HRP and OPD substrate.

For assay [3], the system named is binding of TIM3-Fc to DV2 JAM particles. The assay is described as follows: ELISA: binding of TIM3-Fc to DV2 JAM coated particles in the presence of Annexin V. Also on record: species or system human. As to conditions: ANX5 0.31-20 μg/ml, TIM3-Fc 2 μg/ml.
Description: as §1
To identify whether CD300a recognized these phospholipids at the surface of virions, DV2 JAM coated particles were challenged with serially diluted concentrations of the PtdSer specific ligand AnnexinV (ANX5) (0.31-20 μg/ml, FIG. 14) or the PtdEth specific ligand Duramycin (0.625-5 μM, FIG. 15) before the addition of Fc coupled molecules.

In the case of Duramycin [reference compound], the “effect on DV/DC-SIGN-Fc binding (in words)” value in assay [1] is on record as “left unchanged”. For the same substance, in assay [2], the “inhibition of the binding of CD300a to DV” value is given as “up to 98%” and the “effect on CD300a-Fc binding to DV (in words)” value was “inhibited in a concentration dependent manner”.

Regarding Annexin V [ANX5], the “effect on DV/DC-SIGN-Fc binding (in words)” value in assay [1] is reported as “left unchanged”. In addition, the “binding of TIM3-Fc to DV blocked” value in assay [3] was “up to 60%”. In assay [2], the “inhibition of the binding of CD300a to DV” value was “up to 35%” and the “effect on CD300a-Fc binding to DV (in words)” value was “inhibited in a concentration dependent manner”.
